Our source for the IC50 values is ChEMBL document CHEMBL3286343, “Fused Thiazin-3-ones as KCa3.1 Inhibitors” (ACS Med Chem Lett, 2014).

Structures are written as SMILES.

This test concerns the target Intermediate conductance calcium-activated potassium channel protein 4 (Homo sapiens, UniProt O15554). Kind of test: Inhibition of human KCa3.1 overexpressed in HEK293 cells assessed as thallium influx preincubated for 15 mins followed by thallium/ionomycin addition measured for 50 secs by FLIPR assay. It is filed as cell-based.

Chain of Intermediate conductance calcium-activated potassium channel protein 4 (O15554 whole entry): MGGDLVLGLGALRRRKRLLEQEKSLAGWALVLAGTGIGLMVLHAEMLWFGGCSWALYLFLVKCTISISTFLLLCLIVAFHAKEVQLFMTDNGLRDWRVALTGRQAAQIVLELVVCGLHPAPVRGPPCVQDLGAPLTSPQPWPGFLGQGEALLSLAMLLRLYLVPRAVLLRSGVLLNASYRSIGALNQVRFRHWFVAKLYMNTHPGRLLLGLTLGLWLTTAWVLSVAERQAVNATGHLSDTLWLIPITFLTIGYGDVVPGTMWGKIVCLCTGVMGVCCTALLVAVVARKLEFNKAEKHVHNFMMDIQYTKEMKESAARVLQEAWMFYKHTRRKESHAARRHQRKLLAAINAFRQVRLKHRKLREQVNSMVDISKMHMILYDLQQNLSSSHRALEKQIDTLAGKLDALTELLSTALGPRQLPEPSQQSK

As a reminder, the IC50 is the concentration that gives 50% inhibition. Turning to `CC(c1ccc(F)c(OC(F)(F)F)c1)N1C(=O)CSc2ncsc21` (configuration not stated), the IC50 is 60 nM.
As to `CC(c1ccc(F)c(OC(F)(F)F)c1)N1C(=O)CS(=O)(=O)c2ccsc21` (configuration not stated), the IC50 stood at 39 nM.
